Publication PMC11597048, “M2e-Derived Peptidyl and Peptide Amphiphile Micelles as Novel Influenza Vaccines” (Pharmaceuticals, 2024)

How the values were obtained:
[1] = test system: bone marrow-derived dendritic cells (BMDCs); assay: BMDC cytokine secretion (sandwich ELISA of supernatant); assay type: cell-based, BALB/c mice; conditions: 24 h treatment, 0.2 μM Pam2CSK4, supernatant ELISA
Procedure: Bone marrow was harvested from the femurs and tibias of 4-month-old BALB/c mice and red blood cells were lysed using ammonium-chloride-potassium (ACK) lysing buffer. Bone marrow cells were cultured in complete RPMI media (i.e., 10% FBS, 100 U/mL penicillin, 100 μg/mL streptomycin, and 50 μM β-mercaptoethanol) with 20 ng/mL granulocyte-macrophage colony-stimulating factor (GM-CSF) to promote differentiation into bone marrow-derived dendritic cells (BMDCs). After 10 days, BMDCs were plated in untreated 24-well plates and cultured with peptide or PA for 24 h. Supernatants were collected and stored at −20 °C for later use. BMDCs were harvested and processed for flow cytometry analysis. More specifically, cells were removed from the plate, blocked with Trustain FcX anti-mouse CD16/32 antibody (BioLegend), then stained with phycoerythrin-Cyaninine7 (PE-Cy7) anti-mouse CD11c (BioLegend), fluorescein isothiocyanate (FITC) anti-mouse CD40 (BioLegend), and allophycocyanin (APC) anti-mouse MHC II (BioLegend) before being fixed with 4% para-formaldehyde. Cells were analyzed on a BD LSR Fortessa Flow Cytometer (Franklin Lakes, NJ, USA) within 48 h after fixation. Events were gated according to the strategy shown in Figure S2, with viable samples having a “valid cells” gate of at least 45% of the total events. […]

[2] = Transmission electron microscopy of micelles; assay type: physicochemical; conditions: 20 μM peptide or PA with or without 2.22 μM Pam2CSK4 (90/10) in PBS, Nano-W negative stain
Procedure: Solutions of 20 μM peptide or PA with or without 2.22 μM Pam2CSK4 were prepared in PBS from which 5 μL was pipetted onto a carbon-coated copper transmission electron microscopy (TEM) grid and incubated for 3–5 min before excess solution was wicked away using filter paper. Then, 5 μL Nano-W (2% methylamine tungstate) was pipetted on the grid and incubated for 3–5 min before being removed by wicking. Grids were imaged using a JEOL JEM-1400 Transmission Electron Microscope (Tokyo, Japan) at 15,000× and 25,000× magnification. Micrographs of peptide or PA were compared against reference micrographs of Nano-W with or without PBS to ensure proper identification of micellar structures.

Pam2CSK4
IL-12/IL-23 (p40) secretion [1]: higher production
TNF-α secretion [1]: higher production
Micelle morphology (TEM) [2]: mostly small spherical micelles
